Measured values from ChEMBL document CHEMBL1240357, “Method for screening compounds that influence virulence gene expression in Staphylococcus aureus” (Antimicrob Agents Chemother, 2010).
Active and inactive are the calls of the source. The calls are words filed in the database; no cut-off is given here.

Assays:
Format in all cases: functional, organism-based
Staphylococcus aureus [1] = experiment: Induction of spa virulent gene expression in Staphylococcus aureus PC203 containing spa::lacZ assessed as color chage at 150 ug/ml at 37 degC in presence of chromogenic beta-galactosidase substrate
Staphylococcus aureus [2] = experiment: Induction of hla virulent gene expression in Staphylococcus aureus PC322 containing hla::lacZ assessed as color chage at 150 ug/ml at 37 degC in presence of chromogenic beta-galactosidase substrate
Staphylococcus aureus [3] = experiment: Induction of hla virulent gene expression in Staphylococcus aureus PC322 containing hla::lacZ assessed as color chage at 150 ug/ml at 37 degC in presence of chromogenic beta-galactosidase substrate and 1 to 50 % glucose solution
Staphylococcus aureus [4] = experiment: Induction of spa virulent gene expression in Staphylococcus aureus PC203 containing spa::lacZ assessed as color chage at 150 ug/ml at 37 degC in presence of chromogenic beta-galactosidase substrate and 1 to 50 % glucose solution
Staphylococcus aureus [5] = experiment: Induction of spa virulent gene expression in Staphylococcus aureus PC203 containing spa::lacZ assessed as color chage at 5 ug/ml at 37 degC in presence of chromogenic beta-galactosidase substrate
Staphylococcus aureus [6] = experiment: Induction of hla virulent gene expression in Staphylococcus aureus PC322 containing hla::lacZ assessed as color chage at 5 ug/ml at 37 degC in presence of chromogenic beta-galactosidase substrate
Staphylococcus aureus [7] = experiment: Induction of hla virulent gene expression in Staphylococcus aureus PC322 containing hla::lacZ assessed as color chage at 5 ug/ml at 37 degC in presence of chromogenic beta-galactosidase substrate and 1 to 50 % glucose solution
Staphylococcus aureus [8] = experiment: Induction of spa virulent gene expression in Staphylococcus aureus PC203 containing spa::lacZ assessed as color chage at 5 ug/ml at 37 degC in presence of chromogenic beta-galactosidase substrate and 1 to 50 % glucose solution

| Compound | Activity (Staphylococcus aureus [1]) | Activity (Staphylococcus aureus [2]) | Activity (Staphylococcus aureus [3]) | Activity (Staphylococcus aureus [4]) | Activity (Staphylococcus aureus [5]) | Activity (Staphylococcus aureus [6]) | Activity (Staphylococcus aureus [7]) | Activity (Staphylococcus aureus [8]) |
| --- | --- | --- | --- | --- | --- | --- | --- | --- |
| OC[C@H]1O[C@@H](Oc2c[nH]c3ccc(Br)c(Cl)c23)[C@H](O)[C@@H](O)[C@H]1O | Active | Active | inactive | inactive |  |  |  |  |
| CC[C@H]1OC(=O)[C@H](C)[C@@H](O[C@H]2C[C@@](C)(OC)[C@@H](O)[C@H](C)O2)[C@H](C)[C@@H](O[C@@H]2O[C@H](C)C[C@H](N(C)C)[C@H]2O)[C@](C)(O)C[C@@H](C)C(=O)[C@H](C)[C@@H](O)[C@]1(C)O |  |  |  |  | Active | Active | inactive | inactive |
